The assay deals with P. falciparum strain 3D7. Kind of assay: In vitro potency against P. falciparum strain 3D7 (SYBR green/DAPI). The format is cell-based. Conditions: Plasmodium falciparum, reductions in parasitemia, read-out: IC50 values.
As for `COc1ccc(C#Cc2ccc3c(c2)C(O)(c2ccccc2)C(N)=N3)cc1` (stereo not drawn) [Compound 104], the IC50 (as a rule, the point on the concentration scale where inhibition reaches its midpoint) is 100 to 500 nM.
In the case of `NC1Nc2ccc(-c3nccs3)cc2C1(O)c1ccccc1` (stereo not drawn) [Compound 105] it was 100 to 500 nM; in that of `COc1ccc(CCc2ccc3c(c2)C(O)(c2ccccc2)C(N)=N3)cc1` (stereo not drawn) [Compound 106], 100 to 500 nM; in that of `NC1=Nc2ccc(Cl)cc2C1(O)c1cncc2ccccc12` (stereo not drawn) [Compound 107], 100 to 500 nM.
As for `NC1=Nc2ccc(Cl)cc2C1(O)c1ccnc2ccccc12` (stereo not drawn) [Compound 108], the IC50 is 100 to 500 nM.
In the case of `N#Cc1ccccc1C1(O)C(N)=Nc2ccc(Cl)cc21` (stereo not drawn) [Compound 109] it was 5000 to 15000 nM; in that of `COC(=O)c1ccc2c(c1)C(O)(c1ccccc1)C(N)=N2` (stereo not drawn) [Compound 110], 500 to 1000 nM; in that of `Cn1ccc2cccc(C3(O)C(N)=Nc4ccc(Cl)cc43)c21` (stereo not drawn) [Compound 111], 1 to 100 nM.
In the case of `Cc1cc(C)cc(C2(O)C(N)=Nc3ccc(Cl)cc32)c1` (stereo not drawn) [Compound 112] it was 100 to 500 nM; in that of `NC1=Nc2ccc(Cl)cc2C1(O)c1ccccc1Cl` (stereo not drawn) [Compound 113], 100 to 500 nM; in that of `NC1=Nc2ccc(Cl)cc2C1(O)c1ccccc1-c1ccccc1Cl` (stereo not drawn) [Compound 114], 100 to 500 nM.
In the case of `NC1=Nc2ccc(Cl)cc2C1(O)c1ccccc1-c1ccccc1Br` (stereo not drawn) [Compound 115] it was 1 to 100 nM.
Regarding `NC1=Nc2ccc(Cl)cc2C1(O)C1CCCCC1` (stereo not drawn) [Compound 116], the IC50 fell in the range of 100 to 500 nM.
On to `NC1=Nc2ccc(Cl)cc2C1(O)c1cccc2ccncc12` (stereo not drawn) [Compound 117], for which the IC50 was 100 to 500 nM.
In the case of `NC1=Nc2ccc(Cl)cc2C1(O)c1ccccc1Br` (stereo not drawn) [Compound 118] it was 100 to 500 nM; in that of `NC1=Nc2ccc(Cl)cc2C1(O)c1ccccc1N1CCOCC1` (stereo not drawn) [Compound 119], 1 to 100 nM.
In the case of `CS(=O)(=O)c1ccccc1C1(O)C(N)=Nc2ccc(Cl)cc21` (stereo not drawn) [Compound 120], the IC50 lay within 500 to 1000 nM.
In the case of `CSc1ccccc1C1(O)C(N)=Nc2ccc(Cl)cc21` (stereo not drawn) [Compound 121] it was 1 to 100 nM; in that of `COc1ccccc1C1(O)C(N)=Nc2ccc(C)cc21` (stereo not drawn) [Compound 122], 100 to 500 nM.
In the case of `COc1ccccc1C1(O)C(N)=Nc2ccc(Br)cc21` (stereo not drawn) [Compound 123] it was 1 to 100 nM; in that of `NC1=Nc2ccc(Br)cc2C1(O)Cc1ccccc1` (stereo not drawn) [Compound 124], 100 to 500 nM.
In the case of `C#Cc1ccc2c(c1)C(O)(c1ccc(C3(c4ccccc4)OCCO3)cc1)C(N)=N2` (stereo not drawn) [Compound 125] it was 100 to 500 nM; in that of `COc1ccc(CC2(O)C(N)=Nc3ccccc32)cc1` (stereo not drawn) [Compound 126], 100 to 500 nM.
Take `NC1=Nc2cccc(Cl)c2C1(O)c1cccc2ccccc12` (stereo not drawn) [Compound 127]: the IC50 is 500 to 1000 nM.
In the case of `Cn1cc(CC2(O)C(N)=Nc3ccccc32)c2ccccc21` (stereo not drawn) [Compound 128] it was 100 to 500 nM; in that of `NC1=Nc2ccc(Cl)cc2C1(O)c1ccccc1-c1ccccc1` (stereo not drawn) [Compound 129], 100 to 500 nM.
In the case of `NC1=Nc2ccc(Cl)cc2C1(O)c1ccccc1N1CCCCC1` (stereo not drawn) [Compound 130] it was 100 to 500 nM; in that of `Cc1ccc2c(c1)C(O)(Cc1ccccc1)C(N)=N2` (stereo not drawn) [Compound 131], 1 to 100 nM.
In the case of `COc1ccc2c(c1)C(O)(c1ccccc1OC)C(N)=N2` (stereo not drawn) [Compound 132] it was 100 to 500 nM; in that of `COc1ccc2c(c1)C(O)(Cc1ccccc1)C(N)=N2` (stereo not drawn) [Compound 133], 1 to 100 nM; in that of `COc1ccccc1CC1(O)C(N)=Nc2ccc(Cl)cc21` (stereo not drawn) [Compound 134], 1 to 100 nM.
Consider `Cn1ncc2cccc(C3(O)C(N)=Nc4ccc(Cl)cc43)c21` (stereo not drawn) [Compound 135], for which the IC50 fell in the range of 1 to 100 nM.
In the case of `Cc1csc2c(C3(O)C(N)=Nc4ccc(Cl)cc43)cccc12` (stereo not drawn) [Compound 136] it was 1 to 100 nM; in that of `NC1=Nc2ccc(Cl)cc2C1(O)c1nc2ccccc2s1` (stereo not drawn) [Compound 137], 100 to 500 nM; in that of `Cn1ncc2ccc(C3(O)C(N)=Nc4ccc(Cl)cc43)cc21` (stereo not drawn) [Compound 138], 100 to 500 nM.
Regarding `NC1=Nc2ccc(Cl)cc2C1(O)Cc1nc2ccccc2s1` (stereo not drawn) [Compound 139], the IC50 was in the range of 1 to 100 nM.
On to `COc1ccc(Cl)cc1C1(O)C(N)=Nc2ccc(Cl)cc21` (stereo not drawn) [Compound 140], for which the IC50 was 1 to 100 nM.
In the case of `CCOc1ccccc1C1(O)C(N)=Nc2ccc(Cl)cc21` (stereo not drawn) [Compound 141] it was 1 to 100 nM.
In the case of `Cc1ccc2c(c1)C(O)(c1cccc3ccsc13)C(N)=N2` (stereo not drawn) [Compound 143] it was 1 to 100 nM; in that of `NC1=Nc2ccc(Cl)cc2C1(O)c1cc2ccccc2o1` (stereo not drawn) [Compound 144], 1 to 100 nM; in that of `COc1ccc(F)cc1C1(O)C(N)=Nc2ccc(Cl)cc21` (stereo not drawn) [Compound 145], 1 to 100 nM.
In the case of `CCOc1ccc(OC)cc1C1(O)C(N)=Nc2ccc(Cl)cc21` (stereo not drawn) [Compound 147] it was 1 to 100 nM; in that of `NC1=Nc2ccc(Cl)cc2C1(O)c1ccc2ncsc2c1` (stereo not drawn) [Compound 148], 100 to 500 nM.
For `CN1CCN(c2ccccc2C2(O)C(N)=Nc3ccc(Cl)cc32)CC1` (stereo not drawn) [Compound 149], the IC50 is 500 to 1000 nM.
In the case of `NC1=Nc2ccc(Cl)cc2C1(O)c1cccc2ccoc12` (stereo not drawn) [Compound 150] it was 1 to 100 nM; in that of `NC1=Nc2ccc(Cl)cc2C1(O)c1ccccc1OC1CCC1` (stereo not drawn) [Compound 151], 1 to 100 nM; in that of `COc1ccc(OC(C)C)c(C2(O)C(N)=Nc3ccc(Cl)cc32)c1` (stereo not drawn) [Compound 152], 1 to 100 nM.
In the case of `COc1ccc2c(c1)C(O)(c1cc3ccccc3s1)C(N)=N2` (stereo not drawn) [Compound 153] it was 1 to 100 nM; in that of `CC(C)Oc1ccc(F)cc1C1(O)C(N)=Nc2ccc(Cl)cc21` (stereo not drawn) [Compound 154], 1 to 100 nM; in that of `CCOc1ccc(Cl)cc1C1(O)C(N)=Nc2ccc(Cl)cc21` (stereo not drawn) [Compound 155], 1 to 100 nM.
In the case of `CC(C)Oc1ccc(Cl)cc1C1(O)C(N)=Nc2ccc(Cl)cc21` (stereo not drawn) [Compound 156] it was 1 to 100 nM; in that of `NC1=Nc2ccc(Cl)cc2C1(O)c1cc(Cl)ccc1OC1CCC1` (stereo not drawn) [Compound 157], 1 to 100 nM.
Take `COc1ccc(OC2CCC2)c(C2(O)C(N)=Nc3ccc(Cl)cc32)c1` (stereo not drawn) [Compound 158]: the IC50 is 1 to 100 nM.
On to `COc1ccc2c(c1)C(O)(c1cccc3ccsc13)C(N)=N2` (stereo not drawn) [Compound 159], for which the IC50 was in the range of 1 to 100 nM.
In the case of `NC1=Nc2ccc(Cl)cc2C1(O)Cc1cc2ccccc2o1` (stereo not drawn) [Compound 160] it was 1 to 100 nM; in that of `NC1=Nc2ccc(Cl)cc2C1(O)c1ccccc1N1CCCCCC1` (stereo not drawn) [Compound 162], 1 to 100 nM.
In the case of `CCSc1ccccc1C1(O)C(N)=Nc2ccc(Cl)cc21` (stereo not drawn) [Compound 163] it was 1 to 100 nM; in that of `NC1=Nc2ccc(Cl)cc2C1(O)c1cc(F)ccc1OC1CCC1` (stereo not drawn) [Compound 164], 1 to 100 nM.
In the case of `COc1ccc(OC2CC2)c(C2(O)C(N)=Nc3ccc(Cl)cc32)c1` (stereo not drawn) [Compound 165] it was 1 to 100 nM; in that of `NC1=Nc2ccc(Br)cc2C1(O)c1cccc2ccsc12` (stereo not drawn) [Compound 166], 1 to 100 nM; in that of `COc1ccc2c(c1)C(O)(c1ccccc1N1CCOCC1)C(N)=N2` (stereo not drawn) [Compound 167], 100 to 500 nM.
In the case of `CC(C)c1ccccc1CC1(O)C(N)=Nc2ccc(Cl)cc21` (stereo not drawn) [Compound 168], the IC50 was in the range of 1 to 100 nM.
In the case of `CSc1ccc(Cl)cc1C1(O)C(N)=Nc2ccc(Cl)cc21` (stereo not drawn) [Compound 169] it was 1 to 100 nM.
In the case of `CC(C)Sc1ccccc1C1(O)C(N)=Nc2ccc(Cl)cc21` (stereo not drawn) [Compound 170] it was 1 to 100 nM; in that of `CCSc1ccc(Cl)cc1C1(O)C(N)=Nc2ccc(Cl)cc21` (stereo not drawn) [Compound 171], 1 to 100 nM.
In the case of `CC(C)n1ncc2cccc(C3(O)C(N)=Nc4ccc(Cl)cc43)c21` (stereo not drawn) [Compound 172] it was 500 to 1000 nM; in that of `Cc1ccc(CC2(O)C(N)=Nc3ccc(Cl)cc32)o1` (stereo not drawn) [Compound 173], 100 to 500 nM; in that of `CN(C)c1ccc(Cl)cc1C1(O)C(N)=Nc2ccc(Cl)cc21` (stereo not drawn) [Compound 174], 1 to 100 nM.
On to `NC1=Nc2ccc(Cl)cc2C1(O)c1cc(F)ccc1N1CCCCCC1` (stereo not drawn) [Compound 175], for which the IC50 was in the range of 1 to 100 nM.
In the case of `CC(C)Sc1ccc(Cl)cc1C1(O)C(N)=Nc2ccc(Cl)cc21` (stereo not drawn) [Compound 176] it was 1 to 100 nM.
In the case of `COc1ccc(OC(C)(C)C)c(C2(O)C(N)=Nc3ccc(Cl)cc32)c1` (stereo not drawn) [Compound 177] it was 1 to 100 nM; in that of `NC1=Nc2ccc(Cl)cc2C1(O)c1cc(F)ccc1N1CCOCC1` (stereo not drawn) [Compound 178], 1 to 100 nM.
In the case of `COc1ccc2c(c1)C(O)(c1cc(F)ccc1N1CCOCC1)C(N)=N2` (stereo not drawn) [Compound 179] it was 100 to 500 nM; in that of `COc1ccc2c(c1)C(O)(C1CC1)C(N)=N2` (stereo not drawn) [Compound 180], 100 to 500 nM.
As for `Cc1ccc(CC2(O)C(N)=Nc3ccc(Cl)cc32)s1` (stereo not drawn) [Compound 181], the IC50 was 1 to 100 nM.
In the case of `CCSc1ccc(F)cc1C1(O)C(N)=Nc2ccc(Cl)cc21` (stereo not drawn) [Compound 182] it was 1 to 100 nM; in that of `CC(C)Sc1ccc(F)cc1C1(O)C(N)=Nc2ccc(Cl)cc21` (stereo not drawn) [Compound 183], 1 to 100 nM.
In the case of `NC1=Nc2ccc(Cl)cc2C1(O)c1cc(F)ccc1SC1CCC1` (stereo not drawn) [Compound 184] it was 1 to 100 nM; in that of `NC1=Nc2ccc(Cl)cc2C1(O)c1cc(SC2CCC2)ccc1F` (stereo not drawn) [Compound 185], 1 to 100 nM.
In the case of `NC1=Nc2ccc(Cl)cc2C1(O)c1cc(Cl)ccc1F` (stereo not drawn) [Compound 186] it was 1 to 100 nM; in that of `NC1=Nc2ccc(Cl)cc2C1(O)c1ccccc1SC1CCC1` (stereo not drawn) [Compound 187], 1 to 100 nM.
Turning to `CC(C)(C)Sc1ccc(F)c(C2(O)C(N)=Nc3ccc(Cl)cc32)c1` (stereo not drawn) [Compound 188], the IC50 was in the range of 100 to 500 nM.
In the case of `NC1=Nc2ccc(Cl)cc2C1(O)c1cc(Cl)ccc1SC1CCC1` (stereo not drawn) [Compound 189] it was 1 to 100 nM; in that of `COc1ccc(SC(C)C)c(C2(O)C(N)=Nc3ccc(Cl)cc32)c1` (stereo not drawn) [Compound 190], 1 to 100 nM; in that of `CCOc1ccc(OC)cc1C1(O)C(N)=Nc2ccccc21` (stereo not drawn) [Compound 191], 1 to 100 nM.
In the case of `CN(C)c1ccc(F)cc1C1(O)C(N)=Nc2ccc(Cl)cc21` (stereo not drawn) [Compound 192] it was 1 to 100 nM; in that of `CC(C)(C)Sc1ccccc1C1(O)C(N)=Nc2ccc(Cl)cc21` (stereo not drawn) [Compound 193], 1 to 100 nM.
